# Data from US20240189408A1, “COMPOSITIONS AND METHODS FOR REDUCING METHANE EMISSIONS IN RUMINANT POPULATIONS” (Arkea Bio Corp., priority 2022, published 2024).
# Where two headings read alike, the source gives them in different places.
# Columns and labels:
# [1] = tested on: methane production in ruminants; conditions: cited from earlier work
# [2] = tested on: rumen methanogens; conditions: cited from earlier work
# [3] = 3-NOP to adsorbent ratio study; type: physicochemical; conditions: 24 hr, HPLC
# Description: Optimal loading of 3-NOP onto adsorbents was determined by varying ratios of 3-NOP to adsorbent. 3-NOP and adsorbent were speed mixed at 2000 rpm for 1 min at the following ratios by weight: 1:1.5, 1:2, 1:2.5. The adsorbed 3-NOP powder mixture was then placed in distilled water at 1% 3-NOP loading. The solution was allowed to equilibrate for 24 hr and then an aliquot was taken for HPLC to determine the reduction in 3-NOP concentration.
# [4] = LNP size and polydispersity by DLS (Malvern Panalytical); type: physicochemical; conditions: mRNA LNPs of Table 18; for PDI: LNP polydispersity; for Z-avg.: LNP size
# Description: (§1) To prepare lipid nanoparticles (LNPs), the mRNA stocks were thawed on ice. Nucleic acid concentrations were validated by absorbance at 260 nm using a NanoDrop. The mRNAs were then diluted to a final concentration of 0.35 mg/mL mRNA in Precision Nanosystem's dilution buffer. 10 mL of the dilute mRNAs were loaded into separate Luer lock syringes and all bubbles were removed by gentle tapping. A NanoAssemblr Ignite NxGen Cartridge was loaded into the cartridge slot of the Ignite instrument (FIG. 8A, 801) and one mRNA syringe was attached to the aqueous inlet of the cartridge. 3.3 mL of Genvoy-ILM reagent was loaded into a separate Luer lock syringes and all bubbles were removed by gentle tapping. The Genvoy-ILM syringe was then attached to the organic inlet of the cartridge. LNPs were then generated and collected into a 15 mL conical tube. The process was repeated for the remaining two mRNAs and for a buffer only LNP control (empty). Immediately after LNPs were generated, the samples were loaded into 10K dialysis cartridges, submerged into 1×DPBS (Ca^2+ and Mg^2+-free) to reduce the ethanol concentration to <0.5%. After dialysis the LNPs were recovered from the dialysis cartridges and sterile filtered at 0.2 um. Size and polydispersity (FIG. 8A, 802) were measured using a Malvern Panalytical DLS by diluting 40 uL of LNPs into 360 uL of 1×DPBS. […] Encapsulation efficiency was measured using a RiboGreen assay following Precision Nanosystems recommended protocol using a BioTek Synergy H1 Plate Reader. The resultant encapsulation efficiencies are shown in Table 14, with an average of ˜85%.
# (§2) To prepare lipid nanoparticles (LNPs), the mRNA stocks were thawed on ice. Nucleic acid concentrations were validated by absorbance at 260 nm using a NanoDrop. The mRNAs were then diluted to a final concentration of 0.35 mg/mL mRNA in Precision Nanosystem's dilution buffer. 10 mL of the dilute mRNAs were loaded into separate Luer lock syringes and all bubbles were removed by gentle tapping. A NanoAssemblr Ignite NxGen Cartridge was loaded into the cartridge slot of the Ignite instrument and one mRNA syringe was attached to the aqueous inlet of the cartridge. 3.3 mL of Genvoy-ILM reagent was loaded into a separate Luer lock syringes and all bubbles were removed by gentle tapping. The Genvoy-LM syringe was then attached to the organic inlet of the cartridge. LNPs were then generated and collected into a 15 mL conical tube. The process was repeated for the remaining mRNAs and for a buffer only LNP control (empty). Immediately after LNPs were generated, the samples were loaded into 10K dialysis cartridges, submerged into Ix DPBS (Ca^2+ and Mg^2+-free) to reduce the ethanol concentration to <0.5%. After dialysis the LNPs were recovered from the dialysis cartridges and sterile filtered at 0.2 um. Size and polydispersity (FIG. 12 and FIG. 13) were measured using a Malvern Panalytical DLS by diluting 40 uL of LNPs into 360 uL of 1×DPBS. […] Encapsulation efficiency was measured using a RiboGreen assay following Precision Nanosystems recommended protocol using a BioTek Synergy H1 Plate Reader. The resultant encapsulation efficiencies are shown in Table 18, with an average of ˜60%.
# (§3) To prepare lipid nanoparticles (LNPs), the mRNA stocks are thawed on ice. Nucleic acid concentrations are validated by absorbance at 260 nm using a NanoDrop. The mRNAs are then diluted to a final concentration of 0.35 mg/mL mRNA in Precision Nanosystem's dilution buffer. 10 mL of the dilute mRNAs are loaded into separate Luer lock syringes and all bubbles are removed by gentle tapping. A NanoAssemblr Ignite NxGen Cartridge is loaded into the cartridge slot of the Ignite instrument and one mRNA syringe is attached to the aqueous inlet of the cartridge. 3.3 mL of Genvoy-ILM reagent is loaded into a separate Luer lock syringes and all bubbles are removed by gentle tapping. The Genvoy-ILM syringe is then attached to the organic inlet of the cartridge. […]
# [5] = LNP encapsulation efficiency, RiboGreen assay; type: physicochemical; conditions: mRNA LNPs of Table 18
# Description: as §1, §2, §3
# [6] = 3-NOP:Adsorbent 1:1.5, distilled water at 1% 3-NOP loading
# [7] = 3-NOP:Adsorbent 1:2, distilled water at 1% 3-NOP loading
# [8] = 3-NOP:Adsorbent 1:2.5, distilled water at 1% 3-NOP loading
# [9] = beef cattle, fed at […] of DM intake
molecule,measurement,setting,value
O=[N+]([O-])CCO [2-nitroethanol],Addition amount; maximum methane suppression amount,[1]; 10 mmol/L,"96.7% (NEOH),"
CC(CO)[N+](=O)[O-] (stereo not drawn) [2-nitropropanol],lowering of CH4 production,[2]; steers,37%
same,Addition amount; maximum methane suppression amount,[1]; 10 mmol/L,41.7% (NPOH)
N=C(N)NCCC[C@H](N)C(=O)O [Arginine],Average Integrated Area of 3-NOP in solution,[3]; [6],2406.0
same,Average Integrated Area of 3-NOP in solution,[3]; [7],2372.8
same,Average Integrated Area of 3-NOP in solution,[3]; [8],2435.2
"ClCBr [BCM, bromochloromethane]",toxicity or residues in meat,[2]; steers fed grain-based diets,no signs of toxicity or residues in meat
O=C(O)/C=C/c1ccc(O)c(O)c1 [Caffeic acid],Addition amount; maximum methane suppression amount,[1]; 12 mM,"12 mM, Caffeic acid; 37.58%;"
N[C@@H](CCC(=O)O)C(=O)O [Glutamic acid],Average Integrated Area of 3-NOP in solution,[3]; [6],2445.9
same,Average Integrated Area of 3-NOP in solution,[3]; [7],2452.5
same,Average Integrated Area of 3-NOP in solution,[3]; [8],2446.3
O=C(O)CC(O)C(=O)O (stereo not drawn) [Malate],decrease of CH4 production,[2]; [9],16%
same,reduction of CH4 per unit of DM intake,[2]; [9],9%
O=[N+]([O-])O [Nitrate],Addition amount; maximum methane suppression amount,"[1]; 5 mM (Liu et al., 2017)",5 mM 43.26%
same,Addition amount; maximum methane suppression amount,"[1]; 5 mmol/L (Wu et al., 2019)",5 mmol/L; 32.92%
same,Addition amount; maximum methane suppression amount,"[1]; 20 mg/g dry matter (Alvarez-Hess et al., 2019)",20 mg/g dry matter; 21%
ClC(Cl)Cl [chloroform],duration of substantial inhibition of methanogenesis,[2]; drenching to cattle,up to 32 days
CC[C@@]1([C@@H]2O[C@@H]([C@H]3O[C@@](O)(CO)[C@H](C)C[C@@H]3C)C[C@@H]2C)CC[C@H]([C@]2(C)CC[C@]3(C[C@H](O)[C@@H](C)[C@@H]([C@@H](C)[C@@H](OC)[C@H](C)C(=O)O)O3)O2)O1 [monensin],CH4 production,"[2]; tropical cattle, 60 mg/day/cow",did not lower CH4 production
same,decrease of CH4 production,"[2]; tropical cattle, 250 mg/day/cow, DM intake lowered",about 30%
same,CH4 suppression,[1]; 10-15 ppm,no CH4 suppression was observed
same,lowering of CH4 production (g/kg DM intake),[1]; fed at 24-35 mg/kg diet,up to 10%
O=C(O)/C=C/c1ccc(O)cc1 [p-coumaric acid],Addition amount; maximum methane suppression amount,[1]; 12 mM,p-coumaric acid; 28.33%
Oc1ccc(C=Cc2cc(O)cc(O)c2)cc1 [resveratrol],Addition amount; maximum methane suppression amount,"[1]; 25 mg, high-concentrate diets",high-concentrate diets; 41%
same,Addition amount; maximum methane suppression amount,"[1]; 25 mg, high-forage diets","25 mg, high-forage diets; 60%;"
"ARK002: mRNA: SP + WP_012956721.1 (Methanobrevibacter ruminantium) + TM/C; SEQ ID NO: 16677 (nucleic acid, listed as DNA) ATGTTCGTGTTCCTCGTGCTCCTGCCCCTCGTCTCCAGCCAGTGCGTGTACCTCATGACACTCCCCCTGGACGGACTCGGGCACCCCTTCCCCCTGCCACCCTGGTACATCTGGCTGGGCTTCATCGCAGGACTGATCGCCATCGTCATGGTCACCATAATGCTCTGTTGCATGACCTCCTGCTGTAGCTGCCTGAAAGGCTGTTGCAGCTGCGGGAGCTGCTGCAAATTCGACGAAGACGATAGCGAACCTGTGCTCAAAGGGGTGAAGTTGCATTACACATAGTGA",PDI,[4],0.108
same,Z-avg.,[4],78.82 nm·days
same,Encapsulation efficiency,[5],51%
"ARK013: mRNA: SP + mru0143 + STOP; SEQ ID NO: 16687 (nucleic acid, listed as DNA, chemistry not fully specified) ATGTTCGTGTTCCTCGTGCTCCTGCCCCTCGTCTCCAGCCAGTGCGTGTACCTCATGACACTCCCCCTGGACGGACTCGGGCACCCCTTCCCCCTGCCATGA",PDI,[4],0.1841
same,Z-avg.,[4],78.82 nm·days
same,Encapsulation efficiency,[5],60%
"ARK001: mRNA: SP + WP_004031278.1 (Methanobacterium formicicum) + TM/C; SEQ ID NO: 16676 (nucleic acid, listed as DNA) ATGTTCGTGTTCCTCGTGCTCCTGCCCCTCGTCTCCAGCCAGTGCGTGTACCTCATGACACTGAGCCTGCCAGGGTTCGCACATCCCTTCGCACTCCCCCCCTGGTACATCTGGCTGGGCTTCATCGCAGGACTGATCGCCATCGTCATGGTCACCATAATGCTCTGTTGCATGACCTCCTGCTGTAGCTGCCTGAAAGGCTGTTGCAGCTGCGGGAGCTGCTGCAAATTCGACGAAGACGATAGCGAACCTGTGCTCAAAGGGGTGAAGTTGCATTACACATAGTGA",PDI,[4],0.086
same,Z-avg.,[4],78.82 nm·days
same,Encapsulation efficiency,[5],51%
"ARK012: mRNA: SP + WP_012956721.1 + STOP; SEQ ID NO: 16686 (nucleic acid, listed as DNA) ATGTTCGTGTTCCTCGTGCTCCTGCCCCTCGTCTCCAGCCAGTGCGTGGGGTCCATAGGGGCTGCTTCTATGGAGTTCTGTTTTGATGTTTTCAAGGAACTGAAGGTTCACCATGCTAACGAGAACATCTTTTACTGTCCAATAGCCATCATGAGTGCGCTTGCTATGGTTTATTTGGGTGCAAAAGATTCTACTCGCACTCAGATTAATAAGGTCGTTAGATTCGACAAGCTTCCAGGGTTTGGAGACAGTATTGAGGCCCAATGTGGAACGTCAGTCAACGTCCATTCTTCTCTGCGGGACATTCTCAACCAAATAACGAAGCCAAACGACGTGTATTCCTTCTCACTCGCGTCACGGCTGTATGCTGAAGAAAGGTATCCTATCTTGCCAGAATATCTCCAGTGCGTCAAGGAGTTGTATCGAGGCGGACTGGAACCGATCAACTTTCAGACTGCAGCCGACCAGGCCCGCGAACTGATCAACAGCTGGGTCGAGTCTCAGACCAATGGGATCATACGCAATGTGTTGCAACCGAGTAGTGTCGACTCTCAGACGGCTATGGTCTTGGTGAACGCTATAGTCTTCAAAGGTCTGTGGGAGAAGACCTTCAAGGATGAAGACACACAAGCGATGCCATTCAGAGTCACCGAACAAGAAAGCAAACCCGTCCAAATGATGTACCAAATTGGGCTTTTTCGGGTGGCCTCTATGGCCTCTGAGAAAATGAAAATATTGGAACTGCCCTTCGCCAGCGGCACAATGAGTATGTTGGTCCTTCTTCCAGATGAAGTCTCAGGTCTCGAACAGCTTGAGTCTATCATTAACTTTGAGAAACTCACTGAATGGACTTCTTCCAATGTGATGGAAGAACGAAAAATCAAAGTCTACCTGCCCCGAATGAAGATGGAAGAGAAATATAATTTGACATCAGTTCTGATGGCCATGGGAATCACAGACGTGTTTTCATCCTCTGCGAATCTGTCTGGCATATCTTCCGCAGAATCTCTCAAGATCAGTCAAGCCGTCCACGCGGCCCATGCTGAGATAAATGAGGCGGGCAGAGAGGTGGTGGGGTCCGCCGAAGCTGGAGTCGACGCAGCTTCTGTCAGTGAAGAATTTAGGGCCGATCATCCTTTCCTGTTCTGCATAAAGCACATAGCTACGAACGCTGTGCTTTTCTTTGGCAGATGCGTTTCTCCACCCTGGTACATCTGGCTGGGCTTCATCGCAGGACTGATCGCCATCGTCATGGTCACCATAATGCTCTGTTGCATGACCTCCTGCTGTAGCTGCCTGAAAGGCTGTTGCAGCTGCGGGAGCTGCTGCAAATTCGACGAAGACGATAGCGAACCTGTGCTCAAAGGGGTGAAGTTGCATTACACATAGTGA",PDI,[4],0.100
same,Z-avg.,[4],78.82 nm·days
same,Encapsulation efficiency,[5],49%
